In patent US20240041042A1, “1-(PYRIDYL)-5-AZINYLPYRAZOLE DERIVATIVES, AND THEIR USE FOR CONTROL OF UNDESIRED PLANT GROWTH” (Bayer Aktiengesellschaft, priority 2020, published 2024):
Read-outs that look alike come from different tables or passages of the source.

How the values were obtained:
Type in all cases: in vivo
[1] = tested on: Alopecurus myosuroides (ALOMY); assay: Pre-emergence herbicidal action against ALOMY; conditions: 320 g/ha; scored visually after about 3 weeks; 100% = plants have died
Procedure, shortened: (§1)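 Herbicide applied to soil before seedling emergence, at 600 l/ha spray volume with 0.5% additive and rates up to 320 g/ha. Evaluation: visual percentage effect, about 3 weeks later, greenhouse-grown pots compared with untreated ones.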

[2] = tested on: Amaranthus retroflexus (AMARE); assay: Pre-emergence herbicidal action against AMARE; conditions: 320 g/ha, visual scoring after about 3 weeks vs untreated controls
Procedure, shortened: as §1

[3] = tested on: Digitaria sanguinalis (DIGSA); assay: Pre-emergence herbicidal action against DIGSA
Procedure, shortened: as §1

[4] = tested on: Echinochloa crus-galli (ECHCG); assay: Pre-emergence herbicidal action against ECHCG; conditions: dosage 320 g/ha
Procedure, shortened: as §1

Lolium rigidum (LOLRI) [5] = assay: Pre-emergence herbicidal action against LOLRI; conditions: dosage 320 g/ha
Procedure, shortened: as §1

[6] = tested on: Matricaria inodora (MATIN); assay: Pre-emergence herbicidal action against MATIN; conditions: dosage 320 g/ha
Procedure, shortened: as §1

[7] = tested on: Pharbitis purpurea (PHBPU); assay: Pre-emergence herbicidal action against PHBPU; conditions: dosage 320 g/ha
Procedure, shortened: as §1

[8] = tested on: Polygonum convolvulus (POLCO); assay: Pre-emergence herbicidal action against POLCO; conditions: dosage 320 g/ha
Procedure, shortened: as §1

Setaria viridis (SETVI) [9] = assay: Pre-emergence herbicidal action against SETVI; conditions: dosage 320 g/ha
Procedure, shortened: as §1

Viola tricolor (VIOTR) [10] = assay: Pre-emergence herbicidal action against VIOTR
Procedure, shortened: as §1

Brassica napus (BRSNW) = conditions: 80 g/ha, crop plant compatibility, in comparison to untreated controls
Procedure, shortened: (§2)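 Scoring: visual, % of untreated control, about 3 weeks after a pre-emergence application to the soil surface. Application used WP or EC formulations diluted in water with 0.5% additive at 600 l/ha; dosage levels are marked by suffixes a, b and c.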

Oryza sativa (ORYSA) [11] = conditions: pre-emergence, crop plant compatibility, in comparison to untreated controls
Procedure, shortened: as §2

[12] = tested on: Triticum aestivum (TRZAS); conditions: pre-emergence, crop plant compatibility, in comparison to untreated controls
Procedure, shortened: as §2

Zea mays (ZEAMX) [13] = conditions: pre-emergence, 80 g/ha, crop plant compatibility, in comparison to untreated controls
Procedure, shortened: as §2

[14] = tested on: Abutilon theophrasti (ABUTH); assay: Post-emergence herbicidal action against ABUTH; conditions: 80 g/ha, visual rating about 3 weeks after treatment vs untreated controls (100% = plants have died, 0% = like control plants)
Procedure, shortened: (§3)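 Doses of 320 g/ha or lower, suffixes a, b and c marking different dosages, were applied post-emergence at the one-leaf stage in 600 l/ha water with 0.5% additive. Damage was assessed visually after about 3 weeks in the greenhouse.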

[15] = tested on: Alopecurus myosuroides (ALOMY); assay: Post-emergence herbicidal action against ALOMY; conditions: 80 g/ha, visual rating about 3 weeks after treatment vs untreated controls (100% = plants have died, 0% = like control plants)
Procedure, shortened: as §3

Avena fatua (AVEFA) [16] = assay: Post-emergence herbicidal action against AVEFA; conditions: 80 g/ha, visual rating about 3 weeks after treatment
Procedure, shortened: as §3

[17] = tested on: Echinochloa crus-galli (ECHCG); assay: Post-emergence herbicidal action against ECHCG; conditions: dosage 80 g/ha
Procedure, shortened: as §3

Lolium rigidum (LOLRI) [18] = assay: Post-emergence herbicidal action against LOLRI; conditions: dosage 80 g/ha
Procedure, shortened: as §3

[19] = tested on: Matricaria inodora (MATIN); assay: Post-emergence herbicidal action against MATIN; conditions: dosage 80 g/ha
Procedure, shortened: as §3

[20] = tested on: Pharbitis purpurea (PHBPU); assay: Post-emergence herbicidal action against PHBPU
Procedure, shortened: as §3

Setaria viridis (SETVI) [21] = assay: Post-emergence herbicidal action against SETVI; conditions: dosage 80 g/ha
Procedure, shortened: as §3

Oryza sativa (ORYSA) [22] = conditions: crop plant compatibility
Procedure, shortened: (§4)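 Visual rating (% effect vs. untreated plants; 100% = plant death) made about 3 weeks after treatment. Plants had been sprayed at one-leaf stage, 2–3 weeks post-sowing, with aqueous WP/EC preparations containing 0.5% additive, 600 l/ha water volume; a, b, c mark dose levels.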

[23] = tested on: Triticum aestivum (TRZAS); conditions: crop plant compatibility, effect vs untreated controls
Procedure, shortened: as §4

Glycine max (GLXMA) [24] = assay: Post-emergence crop plant compatibility, GLXMA; conditions: for Post-emergence action against GLXMA in %: effect in comparison to untreated controls
Experimental: Seeds of monocotyledonous and dicotyledonous weeds and crop plants are placed in sandy loam in plastic or organic planting pots, covered with soil and cultivated in a greenhouse under controlled growth conditions. 2 to 3 weeks after sowing, the test plants are treated at the one-leaf stage. The compounds of the invention, formulated in the form of wettable powders (WP) or as emulsion concentrates (EC), are then sprayed onto the green parts of the plants as aqueous suspension or emulsion with addition of 0.5% additive at a water application rate of 600 l/ha (converted). After the test plants have been kept in the greenhouse under optimum growth conditions for about 3 weeks, the activity of the preparations is rated visually in comparison to untreated controls. For example, 100% activity=the plants have died, 0% activity=like control plants.
The observed effects on selected crop plants are reported here in comparison to the untreated controls (values in %). The appendices “a”, “b” and “c” give differentiation by dosage used with otherwise the same crop plants tested.

[25] = tested on: Verconica persica (VERPE); assay: Pre-emergence herbicidal action against VERPE; conditions: dosage 320 g/ha
Procedure, shortened: as §1

[26] = tested on: Amaranthus retroflexus (AMARE); assay: Post-emergence herbicidal action against AMARE
Procedure, shortened: as §3

Zea mays (ZEAMX) [27] = conditions: for Post-emergence action against ZEAMX in %: crop plant compatibility, effect vs untreated controls
Procedure, shortened: as §4

Avena fatua (AVEFA) [28] = assay: Pre-emergence herbicidal action against AVEFA; conditions: 320 g/ha, visual scoring after about 3 weeks vs untreated controls
Procedure, shortened: as §1

Glycine max (GLXMA) [29] = conditions: pre-emergence, crop plant compatibility, in comparison to untreated controls
Procedure, shortened: as §2

[30] = tested on: Polygonum convolvulus (POLCO); assay: Post-emergence herbicidal action against POLCO; conditions: dosage 320 g/ha
Procedure, shortened: as §3

Viola tricolor (VIOTR) [31] = assay: Post-emergence herbicidal action against VIOTR; conditions: 320 g/ha
Procedure, shortened: as §3

[32] = tested on: Abutilon theophrasti (ABUTH); assay: Pre-emergence herbicidal action against ABUTH; conditions: Dosage column 320 g/ha (title prints 3200 g/ha); scored visually after about 3 weeks; 100% = plants have died
Procedure, shortened: as §1

[33] = 20 g/ha, effect vs untreated controls
[34] = 80 g/ha, effect in comparison to untreated controls
[35] = 320 g/ha, effect in comparison to untreated controls

SMILES	Pre-emergence action against ALOMY [1]	Pre-emergence action against AMARE in % [2]	Pre-emergence action against DIGSA in % ([3]; dosage 320 g/ha)	Pre-emergence action against ECHCG in % [4]	Pre-emergence action against LOLRI in % (Lolium rigidum (LOLRI) [5])	Pre-emergence action against MATIN in % [6]	Pre-emergence action against POLCO in % [8]	Pre-emergence action against SETVI in % (Setaria viridis (SETVI) [9])	Pre-emergence action against VIOTR in % (Viola tricolor (VIOTR) [10]; 320 g/ha, Viola tricolor)	Pre-emergence action against BRSNW in % (Brassica napus (BRSNW))	Pre-emergence action against ORYSA in % (Oryza sativa (ORYSA) [11]; 80 g/ha)	Pre-emergence action against TRZAS in % ([12]; 80 g/ha)	Pre-emergence action against ZEAMX in % (Zea mays (ZEAMX) [13])	Post-emergence action against ABUTH in % [14]	Post-emergence action against ECHCG in % [17]	Post-emergence action against LOLRI in % (Lolium rigidum (LOLRI) [18])	Post-emergence action against MATIN in % [19]	Post-emergence action against SETVI in % (Setaria viridis (SETVI) [21])	Post-emergence action against ORYSA in % (Oryza sativa (ORYSA) [22]; [33])	Post-emergence action against ORYSA in % (Oryza sativa (ORYSA) [22]; [34])	other results
CCOC(=O)CSc1nn(-c2ccccn2)c(-c2cncc(F)c2)c1Br [Example I-125]	80%	100%	100%	80%	80%	90%	90%	90%	90%	20%	10%	10%	10%	80%	90%	80%	80%	80%	0%	0%	Pre-emergence action against PHBPU in % [7]: 90%; Post-emergence action against ALOMY in % [15]: 90%; Post-emergence action against AVEFA in % (Avena fatua (AVEFA) [16]): 90%; Post-emergence action against PHBPU in % ([20]; dosage 80 g/ha): 80%; Post-emergence action against TRZAS in % ([23]; 20 g/ha): 10%; Post-emergence action against GLXMA in % (Glycine max (GLXMA) [24]; 20 g/ha): 20%
O=C(O)CSc1nn(-c2ccccn2)c(-c2cncc(Cl)c2)c1Br [Example I-126]	80%	100%	100%	90%	100%	90%	90%	90%	100%	–	20%	20%	–	80%	80%	80%	80%	80%	0%	0%	Pre-emergence action against DIGSA in % ([3]; 80 g/ha, visual scoring after about 3 weeks vs untreated controls): 90%; Pre-emergence action against VERPE in % [25]: 80%; Pre-emergence action against VIOTR in % (Viola tricolor (VIOTR) [10]; dosage 80 g/ha): 100%; Post-emergence action against AMARE in % ([26]; 80 g/ha, visual rating about 3 weeks after treatment vs untreated controls (100% = plants have died, 0% = like control plants)): 80%; Post-emergence action against TRZAS in % ([23]; 20 g/ha): 20%; Post-emergence action against ZEAMX in % (crop plant compatibility) (Zea mays (ZEAMX) [27]; 20 g/ha, ZEAMX, effect in comparison to untreated controls): 10%; Post-emergence action against GLXMA in % (Glycine max (GLXMA) [24]; 20 g/ha): 20%
CCOC(=O)COc1nn(-c2ccccn2)c(-c2cncc(F)c2)c1Cl [Example I-147]	–	90%	–	–	–	–	90%	–	90%	0%	–	0%	0%	–	–	–	–	–	–	0%	Pre-emergence action against AVEFA in % (Avena fatua (AVEFA) [28]): 80%; Pre-emergence action against GLXMA in % (Glycine max (GLXMA) [29]; 80 g/ha): 0%; Pre-emergence action against GLXMA in % (Glycine max (GLXMA) [29]; 320 g/ha): 0%; Pre-emergence action against TRZAS in % ([12]; 320 g/ha): 20%; Post-emergence action against AMARE in % ([26]; 320 g/ha, visual rating about 3 weeks after treatment): 90%; Post-emergence action against PHBPU in % ([20]; dosage 320 g/ha): 90%; Post-emergence action against POLCO in % [30]: 90%; Post-emergence action against VIOTR in % (Viola tricolor (VIOTR) [31]): 90%; Post-emergence action against ORYSA in % (Oryza sativa (ORYSA) [22]; [35]): 0%; Post-emergence action against TRZAS in % ([23]; 80 g/ha): 0%; Post-emergence action against TRZAS in % ([23]; 320 g/ha): 20%; Post-emergence action against ZEAMX in % (Zea mays (ZEAMX) [27]; 80 g/ha): 0%; Post-emergence action against ZEAMX in % (Zea mays (ZEAMX) [27]; 320 g/ha): 20%; Post-emergence action against GLXMA (Glycine max (GLXMA) [24]; 320 g/ha, effect vs untreated controls): 10%; Post-emergence action against GLXMA in % (Glycine max (GLXMA) [24]; 80 g/ha): 0%
O=C(CSc1nn(-c2ccccn2)c(-c2cncc(F)c2)c1Br)NC1CC1 [Example I-201]	–	–	–	90%	–	80%	–	–	–	–	0%	0%	20%	–	–	–	–	–	–	0%	Pre-emergence action against ABUTH [32]: 80%; Pre-emergence action against GLXMA in % (Glycine max (GLXMA) [29]; 80 g/ha): 0%; Pre-emergence action against ORYSA in % (Oryza sativa (ORYSA) [11]; 320 g/ha): 20%; Post-emergence action against ORYSA in % (Oryza sativa (ORYSA) [22]; [35]): 0%; Post-emergence action against TRZAS in % ([23]; 80 g/ha): 0%; Post-emergence action against TRZAS in % ([23]; 320 g/ha): 10%; Post-emergence action against ZEAMX in % (Zea mays (ZEAMX) [27]; 80 g/ha): 0%; Post-emergence action against ZEAMX in % (Zea mays (ZEAMX) [27]; 320 g/ha): 20%; Post-emergence action against GLXMA in % (Glycine max (GLXMA) [24]; 80 g/ha): 20%
